{"source": "patent US20190016686A1", "about": "“SALTS OF COMPOUNDS HAVING A BENZIMIDAZOLIC STRUCTURE, USES AND PROCESS FOR THE PREPARATION THEREOF” (ISTITUTO SUPERIORE DI SANITÀ, priority 2015, published 2019)", "key": {"[1]": {"conditions": "cited from earlier work"}, "[2]": {"test": "solubility in solvents (ethanol, methanol, water, n-hexane)", "assay_type": "physicochemical", "conditions": "salt of the invention"}, "[3]": {"system": "cell lines of ovarian carcinoma", "conditions": "published results; cited from earlier work"}, "[4]": {"system": "cell lines of glioblastoma multiforme", "conditions": "published results; cited from earlier work"}, "[5]": {"conditions": "literature value (J Pharm Sci 94(5), 2005)"}}, "note": "Where two headings read alike, the source gives them in different places.", "data": [{"compound": "CCC[S+]([O-])c1ccc2[nH]c(NC(=O)OC)nc2c1", "note": "(centres unmarked) [ABZ-SO, Albendazole sulphoxide]", "values": [{"measurement": "solubility in ethanol", "setting": "[1]; [5]", "value": 1360, "unit": "µg/mL"}, {"measurement": "solubility in ethanol", "setting": "[1]; non-salified sulphoxide, stated as known", "value": "circa 1 mg mL^−1"}, {"measurement": "solubility in methanol", "setting": "[1]; methanol, in words", "value": "slightly soluble"}, {"measurement": "solubility in n-hexane", "setting": "[1]; n-hexane, in words", "value": "practically insoluble"}, {"measurement": "solubility in water", "setting": "[1]; in words", "value": "practically insoluble"}, {"measurement": "solubility in water", "setting": "[1]; in words, listed as RBZ", "value": "poorly soluble"}, {"measurement": "solubility in water", "setting": "[1]; [5]", "value": 62, "unit": "µg/mL"}]}, {"compound": "CCC[S+]([O-])c1ccc2[n-]c(NC(=O)OC)nc2c1.[Na+]", "note": "(centres unmarked) [ABZ-SO—Na]", "values": [{"measurement": "solubility in ethanol", "setting": "[2]; ethanol", "value": "about 30 mg mL^−1"}, {"measurement": "solubility in methanol", "setting": "[2]; methanol", "value": "about 30 mg mL^−1"}]}, {"compound": "COC(=O)Nc1nc2ccc(C(=O)c3ccccc3)cc2[nH]1", "note": "[MBZ, mebendazole]", "values": [{"measurement": "cytotoxicity", "setting": "[3]", "value": "demonstrated cytotoxicity"}, {"measurement": "cytotoxicity", "setting": "[4]", "value": "demonstrated cytotoxicity"}]}]}
